{
  "source": "patent US7687536B2",
  "about": "“Aminocycloalkyl cinnamide compounds for arrhythmia and as analgesics and anesthetics” (Cardiome Pharma Corp., priority 1999, dated 2010)",
  "key": {"[1]": {"test_system": "sustained AF maintained during continuous vagal nerve stimulation", "assay": "Canine vagal-AF model", "type": "in vivo, dog", "method": "Mongrel dogs of either sex weighing 15-49 kg were anesthetized with morphine (2 mg/kg im initially, followed by 0.5 mg/kg IV every 2 h) and α-chloralose (120 mg/kg IV followed by an infusion of 29.25 mg/kg/h; St.-Georges et al., 1997). Dogs were ventilated mechanically with room air supplemented with oxygen via an endotracheal tube at 20 to 25 breaths/minute with a tidal volume obtained from a nomogram. Arterial blood gases were measured and kept in the physiological range (SAO2>90%, pH 7.30-7.45). Catheters were inserted into the femoral artery for blood pressure recording and blood gas measurement, and into both femoral veins for drug administration and venous sampling. Catheters were kept patent with heparinized 0.9% saline solution. Body temperature was maintained at 37-40° C. with a heating blanket.\nThe heart was exposed via a medial thoracotomy and a pericardial cradle was created. Three bipolar stainless steel, Teflon™-coated electrodes were inserted into the right atria for recording and stimulation, and one was inserted into the left atrial appendage for recording. A programmable stimulator (Digital Cardiovascular Instruments, Berkeley, Calif.) was used to stimulate the right atrium with 2 ms, twice diastolic threshold pulses. Two stainless steel, Teflon™-coated electrodes were inserted into the left ventricle, one for recording and the other for stimulation. A ventricular demand pacemaker (GBM 5880, Medtronics, Minneapolis, Minn.) was used to stimulate the ventricles at 90 beats/minute when (particular during vagal-AF) the ventricular rate became excessively slow. A P23 ID transducer, electrophysiological amplifier (Bloom Associates, Flying Hills, Pa.) and paper recorder (Astromed MT-95000, Toronto, ON, Canada) were used to record ECG leads II and III, atrial and ventricular electrograms, blood pressure and stimulation artefacts. The vagi were isolated in the neck, doubly-ligated and divided, and electrodes inserted in each nerve (see below). To block changes in β-adrenergic effects on the heart, nadolol was administered as an initial dose of 0.5 mg/kg iv, followed by 0.25 mg/kg IV every two hours.\nDrug effects to terminate sustained AF maintained during continuous vagal nerve stimulation were assessed. Unipolar hook electrodes (stainless steel insulated with Teflon™, coated except for the distal 1-2 cm) were inserted via a 21 gauge needle within and parallel to the shaft of each nerve. In most experiments, unipolar stimuli were applied with a stimulator (model DS-9F, Grass Instruments, Quincy, Mass.) set to deliver 0.1 ms square-wave pulses at 10 Hz and a voltage 60% of that required to produce asystole. In some experiments, bipolar stimulation was used. The voltage required to produce asystole ranged between 3-20 volts. Under control conditions, a short burst of rapid atrial pacing (10 Hz, four times diastolic threshold) was delivered to induce AF which was ordinarily sustained for more than 20 minutes. The vagal stimulation voltage was adjusted under control conditions, and then readjusted after each treatment to maintain the same bradycardic effect. AF was defined as rapid (>500 minute under control conditions), irregular atrial rhythm with varying electrogram morphology.\nDiastolic threshold current was determined at a basic cycle length of 300 ms by increasing the current 0.1 mA incrementally until stable capture was obtained. For subsequent protocols current was set to twice diastolic threshold. Atrial and ventricular ERP was measured with the extrastimulus method, over a range of S1S2 intervals at a basic cycle length of 300 ms. A premature extrastimulus S2 was introduced every 15 basic stimuli. The S1S2 interval was increased in 5 ms increments until capture occurred, with the longest S1S2 interval consistently failing to produce a propagated response defining ERP. Diastolic threshold and ERP were determined in duplicate and averaged to give a single value. These values were generally within 5 ms. […]"}, "[2]": {"test_system": "cardiac arrhythmias in conscious rats subjected to coronary artery occlusion", "assay": "Antiarrhythmic efficacy: coronary artery occlusion in conscious rats", "type": "in vivo, rat", "details": "infusion rate which reduces the arrhythmia score to 50% of that of vehicle-treated animals", "method": "Antiarrhythmic efficacy was assessed by investigating the effect of a compound on the incidence of cardiac arrhythmias in conscious rats subjected to coronary artery occlusion. Rats weighing 200-300 gms were subjected to preparative surgery and assigned to groups in a random block design. In each case, the animal was anesthetized with halothane during surgical preparation. The left femoral artery was cannulated for measurement of mean arterial blood pressure and withdrawal of blood sample. The left femoral vein was also cannulated for injection of drugs. The thoracic cavity was opened and a polyethylene occluder loosely placed around the left anterior descending coronary artery. The thoracic cavity was then closed. ECG was recorded by insertion of electrodes placed along the anatomical axis of the heart. All cannulae and electrode leads were exteriorized in the mid scapular region. […] ECG, arrhythmias, blood pressure, heart rate and mortality were monitored for 30 minutes after occlusion. Arrhythmias were recorded as ventricular tachycardia (VT) and ventricular fibrillation (VF) and scored according to Curtis, M. J. and Walker, M. J. A., Cardiovasc. […]\nOcclusion is associated with increases in R-wave height and “S-T” segment elevation; and an occluded zone (measured after death by cardiogreen dye perfusion) in the range of 25%-50% of total left-ventricular weight. […]"}, "[3]": {"test_system": "ECG parameters (P-R, QRS, Q-T interval)", "assay": "Measurement of ECG parameters in pentobarbital anesthetized rats, bolus injections", "type": "in vivo, rat", "details": "bolus injection", "method": "Rats weighing 200-250 gms were used in this example. Animals were anesthetized with 60 mg/kg pentobarbital i.p. The carotid artery and jugular vein were cannulated for measurement of blood pressure and drug injection, respectively. ECG was recorded by insertion of electrodes placed along the anatomical axis of the heart. All compounds were given as bolus injections.\nVarious ECG parameters were measured. Table 3 describes the results of the tests as ED25 (micromol/kg) which are the doses required to produce a 25% increase in the parameter measured (ne=not estimated). The increases in P-R interval and QRS interval indicate cardiac sodium channel blockage while the increase in Q-T interval indicates ancillary cardiac potassium channel blockage which is the property of a type 1a antiarrhythmic."}, "cardiac sodium channel": {"target": "T1, cardiac sodium channel (Rattus norvegicus, UniProt P15389)", "T1 construct": "from tissue; host or cells: heart (left ventricle) of the living rat, in vivo", "T1 sequence (P15389 whole entry, the tested form may be a part)": "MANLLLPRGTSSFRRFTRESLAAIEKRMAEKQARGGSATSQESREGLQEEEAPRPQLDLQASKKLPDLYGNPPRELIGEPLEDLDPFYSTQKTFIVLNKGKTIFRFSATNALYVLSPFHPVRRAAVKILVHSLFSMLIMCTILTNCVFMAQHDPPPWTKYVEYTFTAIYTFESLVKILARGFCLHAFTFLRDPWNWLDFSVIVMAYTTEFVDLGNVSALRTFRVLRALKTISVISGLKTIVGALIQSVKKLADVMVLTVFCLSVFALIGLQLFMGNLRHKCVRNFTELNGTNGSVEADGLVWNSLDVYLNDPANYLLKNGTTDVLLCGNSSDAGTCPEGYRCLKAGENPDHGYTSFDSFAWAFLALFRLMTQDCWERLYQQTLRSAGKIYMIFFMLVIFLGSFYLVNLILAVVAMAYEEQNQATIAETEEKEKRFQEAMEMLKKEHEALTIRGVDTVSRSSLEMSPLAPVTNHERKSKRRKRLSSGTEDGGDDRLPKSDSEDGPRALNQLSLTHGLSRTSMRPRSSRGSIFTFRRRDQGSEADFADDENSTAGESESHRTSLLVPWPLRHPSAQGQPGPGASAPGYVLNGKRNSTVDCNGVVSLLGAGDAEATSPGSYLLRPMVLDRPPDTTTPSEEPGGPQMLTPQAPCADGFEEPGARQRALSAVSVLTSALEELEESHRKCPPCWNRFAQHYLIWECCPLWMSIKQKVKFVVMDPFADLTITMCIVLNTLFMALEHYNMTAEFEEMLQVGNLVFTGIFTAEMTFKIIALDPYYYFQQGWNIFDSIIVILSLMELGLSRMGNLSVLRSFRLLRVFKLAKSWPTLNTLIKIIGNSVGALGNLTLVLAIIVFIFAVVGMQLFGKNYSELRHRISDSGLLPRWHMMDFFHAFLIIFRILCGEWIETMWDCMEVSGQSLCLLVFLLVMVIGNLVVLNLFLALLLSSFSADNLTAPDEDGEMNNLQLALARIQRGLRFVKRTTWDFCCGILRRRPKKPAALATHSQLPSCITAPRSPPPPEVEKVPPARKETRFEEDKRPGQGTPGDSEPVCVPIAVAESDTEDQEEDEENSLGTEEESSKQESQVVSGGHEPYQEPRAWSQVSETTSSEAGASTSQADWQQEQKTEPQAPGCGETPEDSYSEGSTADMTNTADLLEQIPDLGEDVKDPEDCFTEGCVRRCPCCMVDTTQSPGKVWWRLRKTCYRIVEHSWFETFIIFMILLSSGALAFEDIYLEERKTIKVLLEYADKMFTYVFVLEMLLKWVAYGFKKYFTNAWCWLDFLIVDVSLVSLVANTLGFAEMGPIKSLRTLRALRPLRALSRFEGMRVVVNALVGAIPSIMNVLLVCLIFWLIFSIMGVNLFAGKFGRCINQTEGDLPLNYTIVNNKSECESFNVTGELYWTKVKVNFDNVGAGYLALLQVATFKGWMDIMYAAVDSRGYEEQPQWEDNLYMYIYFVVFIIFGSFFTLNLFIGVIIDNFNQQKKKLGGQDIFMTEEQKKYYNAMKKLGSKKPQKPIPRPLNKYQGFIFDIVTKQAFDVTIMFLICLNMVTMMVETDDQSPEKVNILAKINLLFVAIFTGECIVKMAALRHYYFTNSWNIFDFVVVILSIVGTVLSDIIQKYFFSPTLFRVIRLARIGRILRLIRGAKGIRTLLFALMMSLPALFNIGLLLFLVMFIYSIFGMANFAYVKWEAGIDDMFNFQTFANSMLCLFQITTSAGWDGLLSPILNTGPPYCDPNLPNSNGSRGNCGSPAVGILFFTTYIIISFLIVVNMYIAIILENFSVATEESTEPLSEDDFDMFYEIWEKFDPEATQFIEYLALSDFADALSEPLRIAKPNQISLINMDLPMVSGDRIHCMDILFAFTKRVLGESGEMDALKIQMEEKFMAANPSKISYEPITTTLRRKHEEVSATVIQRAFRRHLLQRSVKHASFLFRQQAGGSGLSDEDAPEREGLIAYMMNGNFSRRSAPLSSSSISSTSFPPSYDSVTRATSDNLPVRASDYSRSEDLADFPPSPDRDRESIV", "assay": "Assessment of sodium channel blockage: electrical stimulation of left ventricle in rats", "type": "in vivo", "details": "infusion rate required to elicit a 25% increase from control", "method": "Rats were prepared according to the preceding procedure. Two silver stimulating electrodes were inserted through the chest wall and implanted in the left ventricle. Square wave stimulation was used to determine threshold current for capture, ventricular fibrillation threshold current, and effective refractory period (Howard, P. G. and Walker, M. J. A., Proc. West. Pharmacol. Soc. 33:123-127 (1990)). Table 4 contains ED25 values for these indices of cardiac sodium channel blockage, where the ED25 is the infusion rate in micromol/kg/minute of compound required to elicit a 25% increase from control. The increases in refractoriness indicate ancillary blockage of potassium channels. The threshold current for capture is represented by “It”. The fibrillation threshold current is represented by “VFT”. The effective refracting period is represented by “ERP”."}, "AF": {"test_system": "AF", "details": "cited from earlier work"}},
  "data": [
    {"smiles": "O=C(NCC1CCCCN1)c1cc(OCC(F)(F)F)ccc1OCC(F)(F)F", "note": "(stereo not shown) [Flecainide]", "values": [
      {"measurement": "Median dose required for termination of AF", "setting": "[1]; IV", "value": 2.5, "unit": "µmol/kg"},
      {"measurement": "effect on blood pressure or heart rate", "setting": "[1]; at the median dose for termination of vagal-AF", "value": "did not reduce blood pressure or heart rate"},
      {"measurement": "prevented induction of AF", "setting": "[1]; dogs in which AF was induced under control conditions during ERP determination with vagal nerve stimulation", "value": "2/4"},
      {"measurement": "AF cycle length (AFCL)", "setting": "[1]; during vagal nerve stimulation, prior to termination of AF", "value": "prolonged AFCL"},
      {"measurement": "Mean dose required for termination of AF", "setting": "[1]; mean±SEM, IV", "value": "4 ± 2", "unit": "µmol/kg"},
      {"measurement": "efficacy for terminating AF (dogs terminated/dogs tested)", "setting": "[1]; vagal-AF", "value": "5/6"},
      {"measurement": "efficacy for terminating AF (percent of dogs)", "setting": "[1]; vagal-AF", "value": 80, "unit": "%"}
    ]},
    {"smiles": "CN(C(=O)C=Cc1ccc(Cl)c(Cl)c1)C1CCCC1N1CCCC1.Cl", "note": "[Compound 3, (1R,2R)/(1S,2S)≠N-METHYL-N-[2-(1-PYRROLIDINYL)CYCLOPENTYL]3,4-DICHLOROCINNAMIDE MONOHYDROCHLORIDE]", "values": [
      {"measurement": "ED50AA", "setting": "[2]", "value": 2, "unit": "µmol/kg/min"},
      {"measurement": "ED25 PR", "setting": "[3]; dose required to produce a 25% increase in P-R interval", "value": 8, "unit": "µmol/kg"},
      {"measurement": "ED25 QT", "setting": "[3]; dose required to produce a 25% increase in Q-T interval", "value": 5, "unit": "µmol/kg"},
      {"measurement": "ED25 QRS", "setting": "[3]; dose required to produce a 25% increase in QRS interval", "value": 12, "unit": "µmol/kg"},
      {"measurement": "ED25 ERP (effective refractory period)", "setting": "cardiac sodium channel", "value": 2, "unit": "µmol/kg/min"},
      {"measurement": "ED25 It (threshold current for capture)", "setting": "cardiac sodium channel", "value": 4, "unit": "µmol/kg/min"},
      {"measurement": "ED25 VFT (fibrillation threshold current)", "setting": "cardiac sodium channel", "value": 12, "unit": "µmol/kg/min"}
    ]},
    {"smiles": "CCCCCCCN(CC)CCCC(O)c1ccc(NS(C)(=O)=O)cc1", "note": "(stereo not shown) [ibutilide]", "values": [
      {"measurement": "patients requiring cardioversion for refractory ventricular arrhythmias", "setting": "AF", "value": "~1.7", "unit": "%"},
      {"measurement": "risk of ventricular proarrhythmia", "setting": "AF; patients", "value": "~4.4", "unit": "%"}
    ]}
  ]
}
